Converted amounts (≈) assume the structure as drawn. Like-named read-outs stand apart in the source and are kept apart here.
Key:
[1] = reported in US 2005/0096351 A1; cited from earlier work
Equilibrium solubility = assay type: physicochemical; details: pH 1.8, 1% sodium lauryl sulfate
Experimental: A solid sample of 450 mg was stirred in 50 mL of dissolution medium (HCl buffer, pH 1.8, with 1% sodium lauryl sulfate) using a mechanical stir rod. Aliquots were filtered and centrifuged at 3500 rpm using 0.2-μm nylon syringe filters and immediately diluted 1 mL→50 mL, then 5 mL→425 mL with dissolution medium. In some cases, the undissolved solids were recovered and sent for X-ray powder diffraction (XPRD) studies.
(§1) Both the solubility and dissolution experiments were conducted in a medium of HCl buffer, pH 1.8, containing 1% sodium lauryl sulfate. The solubilities were estimated to be 3.15 mg/ml for Form 1 & 3.28 mg/ml for Form B, respectively.

[2] = Intrinsic dissolution (Woods apparatus); assay type: physicochemical; details: HCl buffer, pH 1.8, 1% sodium lauryl sulfate, 37° C., 50 rpm
Experimental: Dissolution experiments were carried out in a ELECTROLAB-8 dissolution apparatus equipped with a ETC-112 temperature controller. An intrinsic dissolution apparatus (Woods apparatus) was used. Samples were compressed at 2.0 metric tons for 1 min in KBr hydraulic press, giving a sample surface of 0.50 cm^2. A dissolution medium consisting of 900 mL HCl buffer, pH 1.8, with 1% sodium lauryl sulfate, was used for each experiment. The medium was degassed by vacuum filtration through a 0.45-μm nylon filter disk and maintained at 37° C. The apparatus was rotated at 50 rpm for each experiment. Aliquots were filtered immediately using 0.45-μm nylon syringe filters. In some cases, the undissolved solids were recovered and analyzed by X-ray powder diffraction (XRPD).
as §1

[3] = Thermal stability of Lenalidomide Form I; assay type: physicochemical; details: heating at 95 to 105° C. for 7 days
Experimental: The lenalidomide Form I obtained after drying temperature 65 to 75° C. under vacuum is taken subjected to heating at 95 to 105° C. in oil bath, kept in rotator vapor for 7 days, cool to room temperature and the sample is analyzed per IR, NMR, XRPD (X-ray powder diffractometry), DSC (differential scanning calorimetry) & TGA (thermogravimetry). […] The moisture content is also determined for sample and found to be less than 1%.

[4] = Storage stability at room temperature; assay type: physicochemical; details: more than a year at room temperature (25-35° C.)
Experimental: The thus obtained anhydrous novel form is very stable at room temperature (25-35° C.) and is not absorbing water or converting to any reported hydrated forms.

[5] = Moisture content of prepared Form-I samples; assay type: physicochemical; details: samples as prepared
[6] = Encapsulated Form I compared with […] capsules (XRPD, moisture content); assay type: physicochemical
From the text: The sample of lenalidomide Form I API is encapsulated & compared with the […] capsules.

Humidity test = assay type: physicochemical
Experimental: The anhydrous form of lenalidomide along with two batches (0812/006 & 0812/007 &) were subjected for humidity test.
NaBr, NH4Cl, KOH, Na2HPO4 were used as Saturated solution at temperature 25.1° C., 25° C., 24.7° C., 26.8° C. and humidity 84%, 79%, 23%, 93% respectively at initial water content of 0.08%.

Bulk density = assay type: physicochemical
From the text: Batch No—0812/006 • Untapped Density—0.286 g/ml • Tapped density—0.481 g/ml • III. Batch No—0812/006 • Untapped Density—0.286 g/ml • Tapped density—0.481 g/ml

[7] = Accelerated stability studies; assay type: physicochemical
Experimental: The lenalidomide Form I sample are subjected to accelerated stability studies under following conditions & analyzed at initial after 1, 2, 3 and 6 months. • Condition 1—temperature: 40° C.±2° C. • Relative humidity: 75% RH±5% • Condition 1—temperature: 30° C.±2° C. • Relative humidity: 65% RH±5%
We have not observed major deviation in quality of samples analysed of initial samples after 1,2, 3 and 6 months.
No increase in impurity profile is observed in 1,2, 3 and 6 months sample.

[8] = 40° C./75% RH and 30° C./65% RH, 1, 2, 3 and 6 months

Nc1cccc2c1CN(C1CCC(=O)NC1=O)C2=O (centres unmarked) [Form A, 3-(4-amino-1-oxo-1,3-dihydro-isoindol-2-yl)-piperidine-2,6-Dione]
hygroscopicity [1]: not hygroscopic

Nc1cccc2c1CN(C1CCC(=O)NC1=O)C2=O (centres unmarked) [Form-B, 3-(4-amino-1-oxo-1,3-dihydro-isoindole-2-yl)-piperidine-2,6-dione, reference compound]
solubility (Equilibrium solubility; HCl buffer, 25° C.): 3280 µg/mL (≈ 12.7 mM) | moisture content [1]: 3.1% | dissolution rate [2]: 0.250 mg/min/cm^2

Nc1cccc2c1CN(C1CCC(=O)NC1=O)C2=O (centres unmarked) [Form-E, 3-(4-amino-1-oxo-1,3-dihydro-isoindole-2-yl)-piperidine-2,6-dione]
moisture content [1]: 11.9%

Nc1cccc2c1CN(C1CCC(=O)NC1=O)C2=O (centres unmarked) [Form-I, 3-(4-amino-1-oxo-1,3-dihydro-isoindole-2-yl)-piperidine-2,6-dione]
solubility (Equilibrium solubility; HCl buffer with 1% sodium lauryl sulfate, 25 °C, pH 1.8, aqueous with cosolvent or surfactant or cyclodextrin, thermodynamic from solid, read-out: solubility): 3150 µg/mL (≈ 12.1 mM) | change in impurity profile [3]: No further change | change in spectral data (IR, NMR, XRPD, DSC, TGA) [3]: No change is observed | moisture content after heating [3]: less than 1% | conversion to hydrated form on storage [4]: not converted into any hydrated from | moisture content [5]: less than 0.1% | polymorphic form after encapsulation (XRPD) [6]: not changed even after encapsulation | water content after humidity test (Humidity test; KOH saturated solution, 24.7° C., humidity 23%): 0.12 % w/w | water content after humidity test (Humidity test; NH4Cl saturated solution, 25° C., humidity 79%): 0.13 % w/w | water content after humidity test (Humidity test; Na2HPO4 saturated solution, 26.8° C., humidity 93%): 0.10 % w/w | water content after humidity test (Humidity test; NaBr saturated solution, 25.1° C., humidity 84%): 0.21 % w/w | initial water content (Humidity test; before humidity test): 0.08% | Tapped density (Bulk density; listed as 0812/005): 0.465 g/mL | Untapped Density (Bulk density; listed as 0812/005): 0.278 g/mL | Tapped density (Bulk density; listed as 0812/006): 0.481 g/mL | Untapped Density (Bulk density; listed as 0812/006): 0.286 g/mL | dissolution rate [2]: 0.421 mg/min/cm^2 | impurity profile [7, 8]: No increase | moisture content after accelerated stability storage [7, 8]: 0.21 % w/w | conversion to hydrated polymorphic form ([7]; 40° C./75% RH and 30° C./65% RH, up to 6 months): not converted in any of the hydrated polymorphic form | moisture content, initial ([7]; before accelerated stability storage): 0.09 % w/w

From patent US8877932B2, “Anhydrous lenalidomide form-I” (Natco Pharma Limited, priority 2010, dated 2014)
